The values that follow come from patent US20110039762A1, “TARGETED ANTIMICROBIAL MOIETIES” (C3 JIAN, INC., priority 2009, published 2011).

The subject of one test is E. faecalis. Put plainly: Kill or inhibit growth/proliferation; morphology, biofilm and growth disruption (Tables 5, 6). Note: test concentration or dose not given here. It is filed as cell-based, Enterococcus faecalis. Also noted: key: A: Peptide aggregates; B: Less hyphal formation; Clumps; Diffuse clumps and small polyps; F: Diffuse growth; H: Thin; I: Growth inhibition; Microcolony formation; Rippled; Small polyps; Thick; W: Halo formation on top, microlonies on bottom.

Another test concerns S. epidermidis. The description is as above. Also noted: key: A: Peptide aggregates; B: Less hyphal formation; Clumps; Diffuse clumps and small polyps; F: Diffuse growth; H: Thin; I: Growth inhibition; Microcolony formation; Rippled; Small polyps; Thick; W: Halo formation on top, microlonies on bottom. It counts as cell-based, Staphylococcus epidermidis.
The subject of the next test is E. coli. The description is as above. Also noted: key: A: Peptide aggregates; B: Less hyphal formation; Clumps; Diffuse clumps and small polyps; F: Diffuse growth; H: Thin; I: Growth inhibition; Microcolony formation; Rippled; Small polyps; Thick; W: Halo formation on top, microlonies on bottom. It is filed as cell-based, Escherichia coli.
A further test deals with C. jejuni. The test is described as above. It counts as cell-based, Campylobacter jejuni. The arrangement: key: A: Peptide aggregates; B: Less hyphal formation; Clumps; Diffuse clumps and small polyps; F: Diffuse growth; H: Thin; I: Growth inhibition; Microcolony formation; Rippled; Small polyps; Thick; W: Halo formation on top, microlonies on bottom.
Another test concerns P. aeruginosa. The description is as above. The arrangement: key: A: Peptide aggregates; B: Less hyphal formation; Clumps; Diffuse clumps and small polyps; F: Diffuse growth; H: Thin; I: Growth inhibition; Microcolony formation; Rippled; Small polyps; Thick; W: Halo formation on top, microlonies on bottom. It is filed as cell-based, Pseudomonas aeruginosa.
Another test relates to microorganisms. Put plainly: Peptides having multiple activities (targeting/binding, antimicrobial, growth or phenotype altering). The text has this:
In certain embodiments, peptides described herein can have multiple activities. Thus for example, a peptide can have both binding/targeting activity and antimicrobial activity. Such peptides can be used, e.g., in a chimeric construct, for any or all of these properties. Thus, for example, a peptide designated “B” in Table 8 can be used as a targeting peptide. If it is also designated G or M it can also be used for antimicrobial activity.

The next test has as its system S. pneumoniae. Put plainly: Kill or inhibit growth/proliferation; morphology, biofilm and growth disruption (Tables 5, 6). Note: test concentration or dose not given here. It counts as cell-based, Streptococcus pneumoniae. The arrangement: key: A: Peptide aggregates; B: Less hyphal formation; Clumps; Diffuse clumps and small polyps; F: Diffuse growth; H: Thin; I: Growth inhibition; Microcolony formation; Rippled; Small polyps; Thick; W: Halo formation on top, microlonies on bottom.

Another test concerns MRSA. The description is as above. It is filed as cell-based, Methicillin-resistant Staphylococcus aureus. Also noted: key: A: Peptide aggregates; B: Less hyphal formation; Clumps; Diffuse clumps and small polyps; F: Diffuse growth; H: Thin; I: Growth inhibition; Microcolony formation; Rippled; Small polyps; Thick; W: Halo formation on top, microlonies on bottom.
The test system of test [1] is microorganisms (e.g., bacteria, yeasts, fungi). Put plainly: Targeting peptide binding to target microorganisms (Table 3). The settings on record: preferably 1x PBS.
Another test concerns S. mutans. In words: Kill or inhibit growth/proliferation; morphology, biofilm and growth disruption (Tables 5, 6). Note: test concentration or dose not given here. It is filed as cell-based, Streptococcus mutans. The arrangement: key: A: Peptide aggregates; B: Less hyphal formation; Clumps; Diffuse clumps and small polyps; F: Diffuse growth; H: Thin; I: Growth inhibition; Microcolony formation; Rippled; Small polyps; Thick; W: Halo formation on top, microlonies on bottom.

The next test deals with M. luteus. Described as above. Also noted: key: A: Peptide aggregates; B: Less hyphal formation; Clumps; Diffuse clumps and small polyps; F: Diffuse growth; H: Thin; I: Growth inhibition; Microcolony formation; Rippled; Small polyps; Thick; W: Halo formation on top, microlonies on bottom. It is filed as cell-based, Micrococcus luteus.
Where [2] appears, read: microorganism(s) the targeting peptide binds, binding in aqueous buffers depending on peptide solubility.

Entries after “also recorded” stand apart in the source; their conditions may differ.
Throughout, for Organism, effect (morphology, biofilm and growth disruption): test concentration or dose not given here.
Throughout, for Organism, effect: test concentration or dose not given here.

On to ALCSVIKAIELGIINVHLQ [PF-366], for which the “Organism, effect” value is “E. faecalis (C)” with E. faecalis; “S. epidermidis (R)” in the test on S. epidermidis; “E. coli (C)” in the test with E. coli; “C. jejuni (D)” in the test with C. jejuni; “P. aeruginosa (A)” with P. aeruginosa; “S. pneumoniae (C)” with S. pneumoniae. In addition, the “Organism, effect” value in the test with MRSA is “MRSA (D)”. Besides, the Activities result in the test on microorganisms is reported as “G B”.
In the case of LSPRPIIVSRRSRADNNNDWSR [PF-143], the “Target(s)” value in test [1] (setting [2]) is “S. epidermidis and MRSA and C. jeikeium”. Moreover, the “Organism, effect” value with P. aeruginosa is listed as “P. aeruginosa (C)”. Moreover, the Activities entry in the test on microorganisms is reported as “G B”.
In the case of “PF-051: peptide having multiple activities (chain 1 RFFNFEIKKSTKVDYVFAHVDLSDV; chain 2 RFFNFEIKKSTKVDYVFAHVDLSDV; Peptide with targeting and/or antimicrobial activity)”, in [1] (microorganism the targeting peptide binds, binding in aqueous buffers varied by peptide solubility), the “Target(s)” value was “S. epidermidis and M. luteus and P. aeruginosa and C. albicans and MRSA and S. pneumoniae and E. faecalis”. Besides, the “Organism, effect” value is listed as “S. epidermidis (D)” in the test on S. epidermidis; “S. mutans (D)” in the test on S. mutans; “M. luteus (C)” in the test with M. luteus; “S. pneumoniae (D)” in the test on S. pneumoniae; “MRSA (D)” with MRSA. For the same substance, in the test with microorganisms, the Activities result is “G B”.
Turning to “PF-128: peptide having multiple activities (GIKVVAARFEEIQFSENFDSIILA; Peptide with targeting and/or antimicrobial activity)”, the “Target(s)” value in test [1] (setting [2]) is “M. luteus; also recorded: P. aeruginosa; also recorded: E. faecalis”. Further, the results for the “Organism, effect” value in the test with S. epidermidis and with P. aeruginosa were “S. epidermidis (D)” and “P. aeruginosa (C)”, respectively. The Activities entry with microorganisms is listed as “G B”.
With “PF-355: peptide having multiple activities (chain 1 WIAIGLLLYFSLKNQ; chain 2 WIAIGLLLYFSLKNQ; Peptide with targeting and/or antimicrobial activity)”, the “Organism, effect” value in the test with E. faecalis is “E. faecalis (D)”; in the test on S. epidermidis, “S. epidermidis (C)”; with E. coli, “E. coli (C)”; with C. jejuni, “C. jejuni (D)”; with P. aeruginosa, “P. aeruginosa (A)”; in the test on S. pneumoniae, “S. pneumoniae (D)”. Further, the “Organism, effect” value in the test with MRSA is recorded as “MRSA (A)”. Further, the Activities entry with microorganisms is on record as “G B”.
Turning to “PF-356: peptide having multiple activities (chain 1 VSIKIGAIVIGMIGLMELLTE; chain 2 VSIKIGAIVIGMIGLMELLTE; Peptide with targeting and/or antimicrobial activity)”, the “Organism, effect” value in the test on E. faecalis was “E. faecalis (R)”; with S. epidermidis it was “S. epidermidis (S)”; in the test on C. jejuni, “C. jejuni (D)”; in the test on P. aeruginosa it was “P. aeruginosa (A)”; in the test with S. pneumoniae, “S. pneumoniae (R)”; in the test with MRSA, “MRSA (C)”. Besides, in the test with microorganisms, the Activities entry is given as “G B”.
As for “PF-380: peptide having multiple activities (chain 1 KKIIPLITLFVVTLVG; chain 2 KKIIPLITLFVVTLVG; Peptide with targeting and/or antimicrobial activity)”, the “Organism, effect” value with E. faecalis is “E. faecalis (C)”; in the test with S. epidermidis, “S. epidermidis (C)”; in the test on E. coli it was “E. coli (C)”; in the test with C. jejuni, “C. jejuni (D)”; in the test on P. aeruginosa it was “P. aeruginosa (A)”; in the test with S. pneumoniae it was “S. pneumoniae (D)”. For the same substance, in the test with MRSA, the “Organism, effect” value is on record as “MRSA (D)”. For the same substance, in the test with microorganisms, the Activities result is reported as “G B”.
As to “PF-411: peptide having multiple activities (WVAVAILLNIALQTQLT; Peptide with targeting and/or antimicrobial activity)”, the “Organism, effect” value in the test on E. faecalis is given as “E. faecalis (D)”; in the test with S. epidermidis, “S. epidermidis (C)”; in the test with E. coli, “E. coli (C)”; with C. jejuni, “C. jejuni (D)”; in the test with P. aeruginosa, “P. aeruginosa (A)”; in the test with S. pneumoniae, “S. pneumoniae (D)”. Further, in the test on MRSA, the “Organism, effect” value is reported as “MRSA (D)”. The Activities entry in the test on microorganisms is “G B”.
With “PF-454: peptide having multiple activities (chain 1 MSVFVPVTNIFMFIMSPIFNVNLLHFKVYI; chain 2 MSVFVPVTNIFMFIMSPIFNVNLLHFKVYI; Peptide with targeting and/or antimicrobial activity)”, the “Organism, effect” value in the test on E. faecalis is listed as “E. faecalis (C)”; in the test on S. epidermidis it was “S. epidermidis (C)”; in the test with E. coli it was “E. coli (R)”; with P. aeruginosa it was “P. aeruginosa (H)”; with S. pneumoniae, “S. pneumoniae (R)”; in the test with MRSA, “MRSA (C)”. In addition, the Activities result in the test on microorganisms is on record as “G B”.
On to “PF-458: peptide having multiple activities (chain 1 ISLIIFIMLFVVALFKCITNYKHQS; chain 2 ISLIIFIMLFVVALFKCITNYKHQS; Peptide with targeting and/or antimicrobial activity)”, for which the entries for the “Organism, effect” value in the test on P. aeruginosa, in the test with S. pneumoniae and in the test on MRSA were “P. aeruginosa (H)”, “S. pneumoniae (M)” and “MRSA (M)”, respectively. Moreover, in the test with microorganisms, the Activities result is “G B”.
Take “PF-535 (NIKTRKRALKIIKQHQRSK; Peptide with targeting and/or antimicrobial activity)”: the “Organism, effect” value in the test with P. aeruginosa is recorded as “P. aeruginosa (H)”; with S. pneumoniae, “S. pneumoniae (H)”.
Regarding “PF-536 (MEPIPHIMIIANQIGIIIEKA; Peptide with targeting and/or antimicrobial activity)”, the “Organism, effect” value is on record as “E. faecalis (C)” in the test with E. faecalis; “S. epidermidis (C)” in the test on S. epidermidis; “E. coli (R)” in the test with E. coli; “P. aeruginosa (H)” with P. aeruginosa; “S. pneumoniae (M)” in the test with S. pneumoniae; “MRSA (C)” with MRSA.
As for “PF-543: peptide having multiple activities (chain 1 NILFGIIGFVVAMTAAVIVTAISIAK; chain 2 NILFGIIGFVVAMTAAVIVTAISIAK; Peptide with targeting and/or antimicrobial activity)”, the “Organism, effect” value is listed as “S. epidermidis (D)” in the test with S. epidermidis; “S. mutans (S)” with S. mutans; “M. luteus (C)” with M. luteus; “E. coli (C)” in the test on E. coli; “S. pneumoniae (D)” in the test on S. pneumoniae; “MRSA (D)” in the test with MRSA. For the same substance, in the test on microorganisms, the Activities result was “G B”.
On to “PF-776: peptide having multiple activities (VSILLYLSATIILPNVLRLLVARAIIVRV; Peptide with targeting and/or antimicrobial activity)”, for which the “Target(s) (microorganisms bound by the targeting peptide)” value in [1] (peptide binding in aqueous buffers varied by peptide solubility) is “S. epidermidis and M. luteus and P. mirabilis and C. albicans and MRSA and S. pneumoniae and E. faecalis”. Also, the “Organism, effect (morphology, biofilm and growth disruption)” value with S. epidermidis is “S. epidermidis (D)”; with S. mutans it was “S. mutans (D)”; in the test on M. luteus, “M. luteus (C)”; with E. coli, “E. coli (C)”; in the test on S. pneumoniae, “S. pneumoniae (C)”; with MRSA, “MRSA (D)”. The Activities result in the test on microorganisms is reported as “G B”.
